# Measured values taken from patent US7723393B2, “Cycloalkylidene compounds as selective estrogen receptor modulators” (GlaxoSmithKline LLC, priority 2005, dated 2010).
row,SMILES,melting point [°C]
1,"CC1(C)CC(=C(c2ccc(F)cc2)c2ccc(OCC#N)cc2)CC(C)(C)C1 [Example 7, ({4-[(4-Fluorophenyl)(3,3,5,5-tetramethylcyclohexylidene)methyl]phenyl}oxy)acetonitrile]",100 to 101
2,"CC1(C)CC(=C(c2ccccc2)c2ccc(OCCO)cc2)CC(C)(C)C1 [Example 3, 2-({4-[Phenyl(3,3,5,5-tetramethylcyclohexylidene)methyl]phenyl}oxy)ethanol]",131 to 132
3,"CC1(C)CC(=C(c2ccccc2)c2ccc(OCCOCCO)cc2)CC(C)(C)C1 [Example 4, 2-{[2-({4-[Phenyl(3,3,5,5-tetramethylcyclohexylidene)methyl]phenyl}oxy)ethyl]oxy}ethanol]",116 to 117
